According to patent US20100040566A1, “EMULSION” (Riemann Trading ApS, priority 2006, published 2010):

Assay: Determination of photo stability (Xenon arc lamp irradiation, HPLC of UV-filters)
Assay type: physicochemical
Details: for photo stability (in words): 3 MED/2 h irradiation; for Content of UV-Filter Substances, After irradiation [3MED/2 h], Found [%]: Xenon arc lamp, 3 MED after two hours, HPLC; for Content of UV-Filter Substances, Before irradiation, Found [%]: in sample prepared as in Example 1, HPLC; for Content of UV-Filter Substances, After irradiation [3MED/2 h], [%] rel.: relative to content before irradiation
Text: The test sample are weighed and distributed evenly and homogeneously with a brush onto the marked area of a glass plate.
For the Irradiation we use a Xenon arc lamp because the continuous spectrum in the UV-region is near—identical to that of—natural light. The lamp is turned on approximately one hour before Irradiation.
The glass plate Is positioned under the lamp so that the square with the test sample is maximally illuminated.
The distance (lamp-glass plate) is acquired with the aid of a calibrated hand radiometer (PMA 2100) with UV-B detector. The radiant Intensity of the lamp on the sample is set up so that an Irradiation dose of 3 MED (Minimal Erythemal Dose) is given after two hours.
In order to ascertain to which extent each of the Individual UV-filters in the tested formulations has been photometrically degraded, they are analytically quantified before and after irradiation.
The instrumental-analytical method used is HPLC
Sample is prepared as described in Example 1

Row | Structure (SMILES) | photo stability (in words) | Content of UV-Filter Substances, After irradiation [3MED/2 h], Found [%] | Content of UV-Filter Substances, Before irradiation, Found [%] | Content of UV-Filter Substances, After irradiation [3MED/2 h], [%] rel.
1 | CCCCCCOC(=O)c1ccccc1C(=O)c1ccc(N(CC)CC)cc1O [Diethylamino Hydroxybenzoyl Hexyl Benzoate] | very good value of photo stability | 1.21% | 1.29% | 93.8%
2 | CCCCC(CC)COC(=O)C=Cc1ccc(OC)cc1 (stereo not drawn) [Ethylhexyl Methoxycinnamate] | relatively strong degradation |  |  | 
3 | CCCCC(CC)COC(=O)C(C#N)=C(c1ccccc1)c1ccccc1 (stereo not drawn) [Octocrylene] | very good value of photo stability | 9.35% | 9.98% | 93.7%
